From US10577368B2 (The United States of America, as represented by the …, priority 2013, dated 2020)
Read-outs that look alike come from different tables or passages of the source.

Experiments:
[1] = Stability in liver microsomes, mouse; format: in vitro ADME; settings: liver microsomes, read-out: Stability in liver microsomes (t1/2, min): Mouse
[2] = target: Alpha 1B adrenergic receptor (Homo sapiens (Human), UniProt P35368); test: Off-target binding, α1B
From the text: (§1) The results are set forth below.

[3] = Stability in liver microsomes, rat; format: in vitro ADME; settings: liver microsomes, read-out: Stability in liver microsomes (t1/2, min): Rat
mA2AAR = mA2AAR (Mus musculus (Mouse), UniProt Q60613); test: Competition binding at mA2AAR, HEK293 cell membranes; settings: read-out: A2AAR % inhibition, mouse data (m) (converted)
mA2AAR, sequence (Q60613 whole entry): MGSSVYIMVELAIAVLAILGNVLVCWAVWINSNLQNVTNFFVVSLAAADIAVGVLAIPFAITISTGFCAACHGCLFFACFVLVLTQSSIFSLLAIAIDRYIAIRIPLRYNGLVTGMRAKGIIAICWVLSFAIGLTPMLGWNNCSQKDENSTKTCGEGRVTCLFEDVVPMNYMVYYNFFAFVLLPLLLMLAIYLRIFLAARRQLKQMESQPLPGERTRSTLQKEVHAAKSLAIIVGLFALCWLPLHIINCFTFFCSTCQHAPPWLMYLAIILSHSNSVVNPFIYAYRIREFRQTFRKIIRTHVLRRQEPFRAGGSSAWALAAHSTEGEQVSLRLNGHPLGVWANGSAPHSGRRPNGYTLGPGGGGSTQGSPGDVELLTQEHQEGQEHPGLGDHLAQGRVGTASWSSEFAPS

hA1AR = hA1AR (Homo sapiens (Human), UniProt P30542); test: Radioligand binding at hA1AR, CHO cell membranes, [3H]R-PIA; settings: read-out: hA1AR % inhibition
hA1AR, sequence (P30542 whole entry): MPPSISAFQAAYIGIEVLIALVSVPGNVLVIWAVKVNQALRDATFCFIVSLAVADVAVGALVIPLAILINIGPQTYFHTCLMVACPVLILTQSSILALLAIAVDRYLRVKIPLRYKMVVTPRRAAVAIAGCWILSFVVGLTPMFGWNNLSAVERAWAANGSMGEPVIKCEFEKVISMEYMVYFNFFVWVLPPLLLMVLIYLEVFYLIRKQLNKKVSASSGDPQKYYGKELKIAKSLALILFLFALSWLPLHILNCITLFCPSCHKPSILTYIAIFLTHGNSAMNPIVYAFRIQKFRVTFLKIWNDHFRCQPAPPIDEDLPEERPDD

[4] = Stability in simulated fluids (gastric, intestinal); format: in vitro ADME
From the text: In vitro stability parameters for selected compounds are set forth in Table 6, in accordance with an embodiment of the invention.

[5] = tested on: muscarinic, adrenergic, dopamine, GABA, histamine, opiate, serotonin receptors and transporters; test: Off-target binding panel (receptors and transporters of Table 5); settings: for Interactions at other receptors of the off-target panel: 10 μM
From the text: as §1

α1D adrenergic receptor = α1D adrenergic receptor (Homo sapiens (Human), UniProt P25100); test: Off-target binding, α1D
α1D adrenergic receptor, sequence (P25100 whole entry): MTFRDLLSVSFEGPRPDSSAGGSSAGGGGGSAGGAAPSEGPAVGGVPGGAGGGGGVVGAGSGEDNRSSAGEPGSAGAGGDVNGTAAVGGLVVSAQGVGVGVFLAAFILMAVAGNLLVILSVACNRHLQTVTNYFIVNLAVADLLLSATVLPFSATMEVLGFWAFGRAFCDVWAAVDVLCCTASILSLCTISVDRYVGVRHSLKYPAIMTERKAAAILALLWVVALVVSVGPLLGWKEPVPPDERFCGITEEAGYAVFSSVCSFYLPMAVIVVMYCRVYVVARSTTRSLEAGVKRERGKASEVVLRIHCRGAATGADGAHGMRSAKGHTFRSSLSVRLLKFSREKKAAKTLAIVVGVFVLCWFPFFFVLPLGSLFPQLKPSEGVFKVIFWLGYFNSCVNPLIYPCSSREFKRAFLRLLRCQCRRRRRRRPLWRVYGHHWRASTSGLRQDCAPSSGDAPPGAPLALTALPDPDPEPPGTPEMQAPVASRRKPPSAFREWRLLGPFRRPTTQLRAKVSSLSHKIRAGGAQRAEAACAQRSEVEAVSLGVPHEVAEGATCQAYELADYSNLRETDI
From the text: as §1

hA2AAR = hA2AAR (Homo sapiens (Human), UniProt P29274); test: Radioligand binding at hA2AAR, HEK293 cell membranes, [3H]CGS21680; settings: read-out: hA2AAR % inhibition
hA2AAR, sequence (P29274 whole entry): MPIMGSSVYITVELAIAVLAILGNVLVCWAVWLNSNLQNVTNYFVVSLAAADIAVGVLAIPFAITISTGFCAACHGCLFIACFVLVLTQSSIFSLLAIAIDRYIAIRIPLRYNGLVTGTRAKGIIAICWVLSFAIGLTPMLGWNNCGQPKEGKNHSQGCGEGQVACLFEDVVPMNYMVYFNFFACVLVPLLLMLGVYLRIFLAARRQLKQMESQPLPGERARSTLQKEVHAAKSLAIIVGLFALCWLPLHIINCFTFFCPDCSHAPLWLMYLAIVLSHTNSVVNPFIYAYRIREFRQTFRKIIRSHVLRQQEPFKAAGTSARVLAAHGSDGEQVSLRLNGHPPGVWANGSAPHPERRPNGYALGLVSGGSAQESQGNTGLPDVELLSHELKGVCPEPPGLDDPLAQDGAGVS

[6] = Stability in liver microsomes, human; format: in vitro ADME; settings: liver microsomes, read-out: Stability in liver microsomes (t1/2, min): Human
mA3AR = mA3AR (Mus musculus (Mouse), UniProt Q61618); test: Competition binding at mA3AR, HEK293 cell membranes
SERT = SERT (Homo sapiens (Human), UniProt P31645); test: Off-target binding, SERT
SERT, sequence (P31645 whole entry, species assumed): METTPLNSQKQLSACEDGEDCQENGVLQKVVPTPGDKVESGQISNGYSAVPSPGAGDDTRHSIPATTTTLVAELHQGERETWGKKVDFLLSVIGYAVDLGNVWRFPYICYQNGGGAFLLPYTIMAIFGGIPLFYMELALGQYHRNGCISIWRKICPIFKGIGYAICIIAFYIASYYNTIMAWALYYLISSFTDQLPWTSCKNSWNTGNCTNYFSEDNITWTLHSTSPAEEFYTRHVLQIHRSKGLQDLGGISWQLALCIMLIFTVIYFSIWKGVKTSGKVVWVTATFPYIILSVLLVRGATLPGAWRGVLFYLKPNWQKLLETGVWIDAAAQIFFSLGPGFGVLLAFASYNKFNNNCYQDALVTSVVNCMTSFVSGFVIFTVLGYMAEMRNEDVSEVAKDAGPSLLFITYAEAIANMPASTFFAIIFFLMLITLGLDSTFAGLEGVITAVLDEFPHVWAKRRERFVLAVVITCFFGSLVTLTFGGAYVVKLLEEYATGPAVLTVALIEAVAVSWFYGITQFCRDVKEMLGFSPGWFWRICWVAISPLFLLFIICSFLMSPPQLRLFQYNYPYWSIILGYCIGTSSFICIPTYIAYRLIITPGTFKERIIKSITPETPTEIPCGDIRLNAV
From the text: as §1

[7] = target: Alpha 2A adrenergic receptor (Homo sapiens (Human), UniProt P08913); test: Off-target binding, α2A
From the text: as §1

[8] = target: Alpha 2C adrenergic receptor (Homo sapiens (Human), UniProt P18825); test: Off-target binding, α2C; settings: read-out: Ki at α2C
Alpha 2C adrenergic receptor, sequence (P18825 whole entry): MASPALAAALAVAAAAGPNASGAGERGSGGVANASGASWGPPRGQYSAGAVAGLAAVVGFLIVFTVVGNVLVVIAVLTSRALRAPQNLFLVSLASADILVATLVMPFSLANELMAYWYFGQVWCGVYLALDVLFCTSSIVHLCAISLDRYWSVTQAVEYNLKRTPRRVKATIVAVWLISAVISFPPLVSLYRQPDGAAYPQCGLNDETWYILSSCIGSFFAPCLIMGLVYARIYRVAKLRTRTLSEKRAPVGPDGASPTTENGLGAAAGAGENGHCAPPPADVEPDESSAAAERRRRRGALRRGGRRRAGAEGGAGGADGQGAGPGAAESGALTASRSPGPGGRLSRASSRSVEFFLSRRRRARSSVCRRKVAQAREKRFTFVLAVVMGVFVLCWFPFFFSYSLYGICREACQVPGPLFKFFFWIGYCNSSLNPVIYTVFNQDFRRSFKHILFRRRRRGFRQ
From the text: as §1

[9] = tested on: chronic constriction injury model of neuropathic pain; test: CCI model of neuropathic pain, reversal of mechano-allodynia; format: in vivo, mice; settings: for Max. effect Emax (% ± SEM) / Time of peak protection: ipsilateral hind paw; for Efficacy in reversing NP in vivo (of full reversal at peak effect): CCI model
[10] = tested on: CYP1A2, CYP2C9, CYP2C19, CYP2D6, CYP3A4; test: Inhibition of 5 CYP isozymes; format: in vitro ADME; settings: human
human DAT = human DAT (Homo sapiens (Human), UniProt Q01959); test: Radioligand ([3H]WIN35428) binding at the dopamine transporter; settings: for Ki: off-target binding
human DAT, sequence (Q01959 whole entry): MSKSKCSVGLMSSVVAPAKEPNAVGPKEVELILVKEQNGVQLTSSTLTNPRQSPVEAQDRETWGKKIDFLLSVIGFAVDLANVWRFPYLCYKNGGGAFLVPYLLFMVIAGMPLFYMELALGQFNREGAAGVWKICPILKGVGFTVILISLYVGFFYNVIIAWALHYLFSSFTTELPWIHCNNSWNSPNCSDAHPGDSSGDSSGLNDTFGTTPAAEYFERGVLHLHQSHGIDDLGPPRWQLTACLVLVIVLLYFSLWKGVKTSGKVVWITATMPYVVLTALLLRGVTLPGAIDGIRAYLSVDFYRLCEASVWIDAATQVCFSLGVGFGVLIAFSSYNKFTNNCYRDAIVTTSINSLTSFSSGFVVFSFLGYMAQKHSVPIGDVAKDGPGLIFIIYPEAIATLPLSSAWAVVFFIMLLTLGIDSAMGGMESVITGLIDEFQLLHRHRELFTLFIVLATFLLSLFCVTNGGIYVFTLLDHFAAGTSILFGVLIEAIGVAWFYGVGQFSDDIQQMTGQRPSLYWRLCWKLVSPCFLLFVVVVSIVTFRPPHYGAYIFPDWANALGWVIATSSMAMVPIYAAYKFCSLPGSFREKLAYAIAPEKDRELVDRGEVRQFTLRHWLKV

PBR = PBR (Homo sapiens (Human), UniProt P30536); test: Off-target binding, PBR; settings: at 10 μM
PBR, sequence (P30536 whole entry, species assumed): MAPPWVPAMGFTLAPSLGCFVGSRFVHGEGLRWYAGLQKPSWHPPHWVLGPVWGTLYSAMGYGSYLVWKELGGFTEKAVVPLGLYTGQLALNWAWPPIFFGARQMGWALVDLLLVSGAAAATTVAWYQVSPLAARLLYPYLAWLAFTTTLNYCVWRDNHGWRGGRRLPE
From the text: as §1

[11] = tested on: chronic constriction injury (CCI) model, mechano-allodynia; test: Morphine analgesic tolerance in CCI model, co-administration with A3AR agonist; format: in vivo, mice
[12] = % Unbound in plasma, mouse; format: in vitro ADME
[13] = Bioavailability / plasma pharmacokinetics; format: in vivo; settings: rat, male SD rats
Experimental: Male SD rats were dosed intravenously at 1 mg/kg and orally at 1, 3, and 10 mg/kg. Plasma concentration as a function of time is depicted in FIG. 15.

Aqueous solubility = format: physicochemical
C57BL/6J mice [14] = settings: mouse, in vivo, 50 mg/kg
r Sigma 1 = r Sigma 1 (Rattus norvegicus (Rat), UniProt Q9R0C9); test: Off-target binding, Sigma-1
r Sigma 1, sequence (Q9R0C9 whole entry): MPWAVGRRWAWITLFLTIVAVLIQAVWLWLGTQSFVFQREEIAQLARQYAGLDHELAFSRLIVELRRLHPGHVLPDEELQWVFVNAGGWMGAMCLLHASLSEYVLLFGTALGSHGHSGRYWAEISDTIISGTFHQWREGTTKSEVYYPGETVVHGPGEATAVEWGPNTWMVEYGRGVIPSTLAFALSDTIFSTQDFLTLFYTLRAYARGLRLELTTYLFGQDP
From the text: as §1

r Sigma 2 = r Sigma 2 (Rattus norvegicus (Rat), UniProt Q5U3Y7); test: Off-target binding, Sigma-2
r Sigma 2, sequence (Q5U3Y7 whole entry): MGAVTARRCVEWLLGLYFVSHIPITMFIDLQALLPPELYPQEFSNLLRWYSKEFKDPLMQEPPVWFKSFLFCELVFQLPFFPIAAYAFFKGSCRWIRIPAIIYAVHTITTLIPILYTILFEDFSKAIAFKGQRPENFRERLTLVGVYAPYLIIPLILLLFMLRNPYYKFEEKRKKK
From the text: as §1

C57BL/6J mice [15] = test: Acute liver toxicity, oral gavage; settings: 50 mg/kg oral gavage, 24 h
mA1AR = mA1AR (Mus musculus (Mouse), UniProt Q60612); test: Competition binding at mA1AR, HEK293 cell membranes; settings: read-out: A1AR % inhibition, mouse data (m)
mA1AR, sequence (Q60612 whole entry): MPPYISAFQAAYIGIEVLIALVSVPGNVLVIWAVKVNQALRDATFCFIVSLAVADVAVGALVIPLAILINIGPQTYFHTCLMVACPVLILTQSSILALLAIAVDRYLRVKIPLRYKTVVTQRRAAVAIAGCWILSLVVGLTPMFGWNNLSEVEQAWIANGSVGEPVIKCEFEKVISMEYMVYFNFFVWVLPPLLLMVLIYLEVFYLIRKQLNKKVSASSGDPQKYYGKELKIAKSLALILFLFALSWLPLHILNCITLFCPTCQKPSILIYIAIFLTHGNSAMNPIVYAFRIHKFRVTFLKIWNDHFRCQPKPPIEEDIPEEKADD

[16] = simulated gastric fluid, read-out: Stability in simulated fluids (t1/2, min): Gastric
[17] = simulated intestinal fluid, read-out: Stability in simulated fluids (t1/2, min): Intestinal

Alpha 1B adrenergic receptor, sequence (P35368 whole entry): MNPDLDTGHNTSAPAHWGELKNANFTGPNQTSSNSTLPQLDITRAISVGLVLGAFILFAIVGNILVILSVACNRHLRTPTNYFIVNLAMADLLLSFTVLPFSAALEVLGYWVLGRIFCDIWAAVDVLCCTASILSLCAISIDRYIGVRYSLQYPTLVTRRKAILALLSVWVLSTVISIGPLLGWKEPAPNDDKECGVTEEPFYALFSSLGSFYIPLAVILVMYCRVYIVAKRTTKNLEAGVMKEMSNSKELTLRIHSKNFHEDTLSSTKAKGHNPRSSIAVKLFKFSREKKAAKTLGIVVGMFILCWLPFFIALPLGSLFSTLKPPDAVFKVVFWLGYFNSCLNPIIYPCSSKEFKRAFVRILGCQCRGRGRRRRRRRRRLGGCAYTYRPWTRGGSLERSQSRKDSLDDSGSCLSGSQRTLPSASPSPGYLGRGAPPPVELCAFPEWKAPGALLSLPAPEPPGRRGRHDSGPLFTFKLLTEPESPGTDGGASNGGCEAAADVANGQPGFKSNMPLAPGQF

CNC(=O)[C@@]12C[C@@H]1[C@@H](n1cnc3c(NC)nc(C#Cc4cnccn4)nc31)[C@H](O)[C@@H]2O [Compound 7, (1S,2R,3S,4R,5S)-2,3-Dihydroxy-N-methyl-4-(6-(methylamino)-2-(pyrazin-2-ylethynyl)-9H-purin-9-yl)bicyclo[3.1.0]hexane-1-carboxamide]
half-life [1]: > 145 min | Ki ([2]; read-out: Ki at α1B): 9.4 µM | Ki ([2]; read-out: Ki class at α1B): 1 to 10 µM | half-life [3]: > 145 min | inhibition at 10 µM (mA2AAR): 12% | inhibition at 10 µM (hA1AR): 37% | half-life [4, 16]: > 480 min | half-life [4, 17]: > 480 min | Off-target effects compared with MRS5698 and MRS5676 [5]: significantly fewer off-target effects | Interactions at other receptors of the off-target panel [5]: No interactions at other receptors | Ki (α1D adrenergic receptor): 4.3 µM | inhibition at 10 µM (hA2AAR): 25 ± 9% | half-life [6]: 236 min | Ki (mA3AR): 0.068 ± 0.005 µM | Ki (SERT; read-out: Ki at SERT): > 10 µM | Ki (SERT; read-out: Ki class at SERT): > 10 µM | Ki [7]: 7.9 µM | Ki [8]: 6.8 µM | Max. effect Emax (% ± SEM) ([9]; 3 μmol/kg p.o., mice): 100 ± 0.0% | Time of peak protection ([9]; 3 μmol/kg p.o., mice): 1 h | Efficacy in reversing NP in vivo (of full reversal at peak effect) [9]: ~100% | IC50 [10]: > 10 µM | Ki (human DAT; read-out: Ki at DAT): 1.8 µM | Ki (human DAT; read-out: Ki class at DAT): 1 to 10 µM

CNC(=O)[C@@]12C[C@@H]1[C@@H](n1cnc3c(NC)nc(C#Cc4ccc(Cl)s4)nc31)[C@H](O)[C@@H]2O [Compound 32, (1S,2R,3S,4R,5S)-4-(2-((5-Chlorothiophen-2-yl)ethynyl)-6-(methylamino)-9H-purin-9-yl)-2,3-dihydroxy-N-methylbicyclo[3.1.0]hexane-1-carboxamide]
inhibition at 10 µM (PBR): 60 to 70% | half-life [1]: 143 min | Analgesic effect of the A3AR agonist dose per se ([11]; […]): no analgesic effects per se | Effect on opioid-induced hypersensitivity and analgesic tolerance ([11]; mouse, in vivo): block opioid-induced hypersensitivity and analgesic tolerance | % Unbound in plasma: Mouse [12]: 6.40% | half-life [3]: 128 min | inhibition at 10 µM (mA2AAR): 7% | inhibition at 10 µM (hA1AR): 6% | half-life [4, 16]: > 480 min | half-life [4, 17]: > 480 min | Off-target effects compared with MRS5698 and MRS5676 [5]: significantly fewer off-target effects | Interactions at other receptors of the off-target panel [5]: No interactions | inhibition at 10 µM (hA2AAR): 24% | half-life ([13]; iv, i.v. 1 mg/kg): 0.7 ± 0.3 h | half-life ([13]; po, p.o. 1 mg/kg): 3.6 ± 0.4 h | Cmax ([13]; po, p.o. 1 mg/kg, read-out: Cmax nM): 63 ± 19 nM | Cmax ([13]; po, p.o. 1 mg/kg, read-out: Cmax ng/ml): 29 ± 8.6 ng/mL | half-life ([13]; po, p.o. 3 mg/kg): 5.3 ± 0.8 h | Cmax ([13]; po, p.o. 3 mg/kg, read-out: Cmax nM): 101 ± 53 nM | Cmax ([13]; po, p.o. 3 mg/kg, read-out: Cmax ng/ml): 47 ± 24 ng/mL | half-life ([13]; po, p.o. 10 mg/kg): 7.8 ± 2 h | Cmax ([13]; po, p.o. 10 mg/kg, read-out: Cmax nM): 711 ± 125 nM | Cmax ([13]; po, p.o. 10 mg/kg, read-out: Cmax ng/ml): 326 ± 57 ng/mL | Aq. Solubility (pH 7.4, μg/mL) (Aqueous solubility): 16.8 ± 1.1 μg/mL | Acute liver toxicity (C57BL/6J mice [14]): no acute liver toxicity | half-life [6]: 230 min | inhibition at 10 µM (r Sigma 1; at 10 μM): 60 to 70% | Ki (r Sigma 1; off-target binding): 1.4 µM | inhibition at 10 µM (r Sigma 2; at 10 μM): 60 to 70% | Ki (r Sigma 2; off-target binding, read-out: Ki at Sigma-2 (σ2)): 0.63 µM | GSH and GSSG levels in liver (C57BL/6J mice [15]): no alteration | Liver histology (C57BL/6J mice [15]): remained normal | Effect at 3 h (% ± SEM) ([9]; 3 μmol/kg p.o., mice, 3 h): 83 ± 11% | Max. effect Emax (% ± SEM) ([9]; 3 μmol/kg p.o., mice): 93 ± 7% | Time of peak protection ([9]; 3 μmol/kg p.o., mice): 0.5 to 3 h | Efficacy in reversing NP in vivo (of full reversal at peak effect) [9]: ~100% | IC50 [10]: > 10 µM | Increase of the level of radioligand ([3H]WIN35428) binding at the human DAT (human DAT; 10 μM): 556% | Enhancement of radioligand binding at the dopamine transporter (human DAT; compound at 10 μM): ~5 × | inhibition at 10 µM (mA1AR): 38%
